# Measured values published in patent US10131652B2, “Pyrimidinyloxy benzene derivatives as herbicides” (E. I. DU PONT DE NEMOURS AND COMPANY, priority 2014, dated 2018).
# Where two headings read alike, the source gives them in different places.
# Key:
# Experiment in all cases: Test D pre-/postemergence plant response
# Assay type in all cases: in vivo
# [1] = system: yellow nutsedge (Cyperus esculentus); settings: Cyperus; for pest or weed control at 62 g/ha: 62 g ai/ha; for pest or weed control at 125 g/ha: 125 g ai/ha
# Summary of the method: (§1)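 Visual injury scoring (0–100) at 13 to 15 days in greenhouse. Preemergence sprays on seeded loam/sand; postemergence sprays on 1–4 leaf plants.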
# [2] = system: giant foxtail (Setaria faberii); settings: Setaria faberi; for pest or weed control at 16 g/ha: 16 g ai/ha; for pest or weed control at 31 g/ha: 31 g ai/ha; for pest or weed control at 62 g/ha: 62 g ai/ha; for pest or weed control at 125 g/ha: 125 g ai/ha
# Summary of the method: as §1
# [3] = system: barnyardgrass (Echinochloa crus-galli); settings: Echinochloa crus-galli; for pest or weed control at 16 g/ha: 16 g ai/ha; for pest or weed control at 16 g/ha / pest or weed control at 31 g/ha: scale 0 to 100 (0 no effect, 100 complete control); for pest or weed control at 31 g/ha: 31 g ai/ha; for pest or weed control at 62 g/ha: 62 g ai/ha; for pest or weed control at 125 g/ha: 125 g ai/ha
# Summary of the method: as §1
# [4] = system: corn (Zea mays); settings: Zea mays; for Corn plant response rating (crop injury, 0 = no effect, 100 = complete kill) at 62 g/ha: 62 g ai/ha
# Summary of the method: as §1
# [5] = system: Italian ryegrass (Lolium multiflorum); settings: Lolium multiflorum; for pest or weed control at 16 g/ha: 16 g ai/ha; for pest or weed control at 31 g/ha: 31 g ai/ha; for pest or weed control at 62 g/ha: 62 g ai/ha; for pest or weed control at 125 g/ha: 125 g ai/ha
# Summary of the method: as §1
# [6] = system: morningglory (Ipomoea coccinea); settings: Ipomoea; for pest or weed control at 16 g/ha: 16 g ai/ha; for pest or weed control at 31 g/ha: 31 g ai/ha; for pest or weed control at 62 g/ha: 62 g ai/ha; for pest or weed control at 125 g/ha: 125 g ai/ha
# Summary of the method: as §1
# [7] = post-emergence, Postemergence, scale 0 to 100, 0 no effect, 100 complete control, read-out: Plant response rating, Nutsedge, Yellow
# [8] = post-emergence, Postemergence, scale 0 to 100 (0 no effect, 100 complete control), read-out: Foxtail, Giant plant response rating
# [9] = post-emergence, Postemergence, scale 0 to 100, 0 no effect, 100 complete control, read-out: Plant response rating, Foxtail, Giant
# [10] = pre-emergence, Preemergence, scale 0 to 100 (0 no effect, 100 complete control), read-out: Plant response rating, Foxtail, Giant
# [11] = post-emergence, Postemergence, read-out: Barnyardgrass plant response rating
# [12] = post-emergence, Postemergence, scale 0 to 100, 0 no effect, 100 complete control, read-out: Plant response rating, Barnyardgrass
# [13] = pre-emergence, Preemergence, read-out: Plant response rating (scale 0 to 100), Barnyardgrass
# [14] = pre-emergence, Preemergence, read-out: Plant response rating, Barnyardgrass
# [15] = post-emergence, Postemergence, scale 0 to 100 (0 no effect, 100 complete control), read-out: Ryegrass, Italian plant response rating
# [16] = post-emergence, Postemergence, scale 0 to 100, 0 no effect, 100 complete control, read-out: Plant response rating, Ryegrass, Italian
# [17] = pre-emergence, Preemergence, scale 0 to 100 (0 no effect, 100 complete control), read-out: Plant response rating, Ryegrass, Italian
# [18] = post-emergence, Postemergence, scale 0 to 100 (0 no effect, 100 complete control), read-out: Morningglory plant response rating
# [19] = post-emergence, Postemergence, scale 0 to 100, 0 no effect, 100 complete control, read-out: Plant response rating, Morningglory
# [20] = pre-emergence, Preemergence, scale 0 to 100 (0 no effect, 100 complete control), read-out: Plant response rating, Morningglory
structure (smiles),measurement,setting,value
"FC(F)(F)c1cc(-c2ccccc2Oc2ncc(Cl)cn2)on1 [Compound 63, 5-chloro-2-[2-[3-(trifluoromethyl)-5-isoxazolyl]phenoxy]pyrimidine]",pest or weed control at 62 g/ha,[1]; [7],5%
same,pest or weed control at 125 g/ha,[1]; [7],5%
same,pest or weed control at 125 g/ha,"[1]; pre-emergence, Preemergence, read-out: Plant response rating (scale 0 to 100), Nutsedge, Yellow",5%
same,pest or weed control at 16 g/ha,"[1]; pre-emergence, Preemergence, 16 g ai/ha, scale 0 to 100 (0 no effect, 100 complete control), read-out: Plant response rating, Nutsedge, Yellow",0%
same,pest or weed control at 31 g/ha,"[1]; pre-emergence, Preemergence, 31 g ai/ha, scale 0 to 100 (0 no effect, 100 complete control), read-out: Plant response rating, Nutsedge, Yellow",0%
same,pest or weed control at 62 g/ha,"[1]; pre-emergence, Preemergence, scale 0 to 100 (0 no effect, 100 complete control), read-out: Plant response rating, Nutsedge, Yellow",0%
same,pest or weed control at 16 g/ha,[2]; [8],0%
same,pest or weed control at 31 g/ha,[2]; [8],5%
same,pest or weed control at 62 g/ha,[2]; [9],10%
same,pest or weed control at 125 g/ha,[2]; [9],20%
same,pest or weed control at 125 g/ha,"[2]; pre-emergence, Preemergence, read-out: Plant response rating (scale 0 to 100), Foxtail, Giant",100%
same,pest or weed control at 16 g/ha,[2]; [10],30%
same,pest or weed control at 31 g/ha,[2]; [10],80%
same,pest or weed control at 62 g/ha,[2]; [10],98%
same,pest or weed control at 16 g/ha,[3]; [11],5%
same,pest or weed control at 31 g/ha,[3]; [11],10%
same,pest or weed control at 62 g/ha,[3]; [12],10%
same,pest or weed control at 125 g/ha,[3]; [12],10%
same,pest or weed control at 62 g/ha,[3]; [13],98%
same,pest or weed control at 125 g/ha,[3]; [13],100%
same,pest or weed control at 16 g/ha,[3]; [14],30%
same,pest or weed control at 31 g/ha,[3]; [14],65%
same,plant injury at 16 g/ha,"[4]; post-emergence, Postemergence, 16 g ai/ha, scale 0 to 100 (0 no effect, 100 complete control), read-out: Corn plant response rating",5%
same,plant injury at 31 g/ha,"[4]; post-emergence, Postemergence, 31 g ai/ha, scale 0 to 100 (0 no effect, 100 complete control), read-out: Corn plant response rating",5%
same,"Corn plant response rating (crop injury, 0 = no effect, 100 = complete kill) at 62 g/ha","[4]; post-emergence, Postemergence, scale 0 to 100, 0 no effect, 100 complete control",5%
same,"Corn plant response rating (crop injury, 0 = no effect, 100 = complete kill) at 125 g/ha","[4]; post-emergence, Postemergence, 125 g ai/ha, scale 0 to 100, 0 no effect, 100 complete control",10%
same,plant injury at 125 g/ha,"[4]; pre-emergence, Preemergence, 125 g ai/ha, read-out: Plant response rating (scale 0 to 100), Corn",15%
same,"Corn plant response rating (crop injury, 0 = no effect, 100 = complete kill) at 16 g/ha","[4]; pre-emergence, Preemergence, 16 g ai/ha, scale 0 to 100 (0 no effect, 100 complete control)",0%
same,"Corn plant response rating (crop injury, 0 = no effect, 100 = complete kill) at 31 g/ha","[4]; pre-emergence, Preemergence, 31 g ai/ha, scale 0 to 100 (0 no effect, 100 complete control)",5%
same,"Corn plant response rating (crop injury, 0 = no effect, 100 = complete kill) at 62 g/ha","[4]; pre-emergence, Preemergence, scale 0 to 100 (0 no effect, 100 complete control)",15%
same,pest or weed control at 16 g/ha,[5]; [15],0%
same,pest or weed control at 31 g/ha,[5]; [15],0%
same,pest or weed control at 62 g/ha,[5]; [16],5%
same,pest or weed control at 125 g/ha,[5]; [16],30%
same,pest or weed control at 125 g/ha,"[5]; pre-emergence, Preemergence, read-out: Plant response rating (scale 0 to 100), Ryegrass, Italian",90%
same,pest or weed control at 16 g/ha,[5]; [17],0%
same,pest or weed control at 31 g/ha,[5]; [17],40%
same,pest or weed control at 62 g/ha,[5]; [17],80%
same,pest or weed control at 16 g/ha,[6]; [18],50%
same,pest or weed control at 31 g/ha,[6]; [18],50%
same,pest or weed control at 62 g/ha,[6]; [19],98%
same,pest or weed control at 125 g/ha,[6]; [19],70%
same,pest or weed control at 125 g/ha,"[6]; pre-emergence, Preemergence, read-out: Plant response rating (scale 0 to 100), Morningglory",60%
same,pest or weed control at 16 g/ha,[6]; [20],0%
same,pest or weed control at 31 g/ha,[6]; [20],0%
same,pest or weed control at 62 g/ha,[6]; [20],25%
